{
  "source": "patent US20220220041A1",
  "about": "“USE OF UREA AS AN ANTIMICROBIAL ADDITIVE IN AN AQUEOUS SUSPENSION” (Omya International AG, priority 2019, published 2022)",
  "key": {"[1]": {"tested_on": "non-sterile calcium carbonate slurry (H60), environmental bacteria", "assay": "Example 2 preservation efficacy: H60 slurry with 61 wt.-% urea solution, non-sterile H60 inoculum, TVC", "format": "cell-based", "details": "30° C.", "method": "(§1) All quoted bacterial counts (Total viable counts (TVC) values), unless otherwise indicated, are given in cfu/ml and determined after at least 2 days following plate-out and incubation at 30° C. and in accordance with the counting method described in “Bestimmung von aerobe mesophilen Keimen”, Schweizerisches Lebensmittelbuch, chapter 56, section 7.01, edition of 1985, revised version of 1988.\n(§2) Unless otherwise stated, per tryptic soy agar plate (TSA, prepared using BD 236950) 0.1 ml of a solution or suspension is plated. Counts from 10000 cfu/ml to 99999 cfu/ml are reported as >1E4 cfu/ml. Counts from 100000 cfu/ml to 999999 cfu/ml are reported as >1E5 cfu/ml. Counts above 1000000 cfu/ml are reported as >1E6 cfu/ml.\nNon-sterile slurries (H60 or H90) contain contamination with environmental bacteria at a TVC>100000 cfu/ml. The contamination originates spontaneously and a bacterial burden of at least>100000 cfu/ml is confirmed prior use as inoculum by TVC. The following bacterial species are known to occur, as identified by 16S RNA sequencing or MALDI-TOF-MS analysis: Rhizobium radiobacter, Brevundimonas intermedia, Brevundimonas diminiuta, Sphingomonas sp., Pseudomonas stutzeri, Pseudomonas sp., Comomonas aquatic.\n(§3) 50 g sterile slurry H60 with a solid content of 76.5 wt.-%, based on the total weight of the H60 slurry is supplemented with different amounts of 61 wt.-% urea solution or water. The samples are then inoculated with 1 ml non-sterile calcium carbonate slurry (H60), 1 ml non-sterile calcium carbonate slurry (H90), 0.02 ml overnight culture of Escherichia coli (DSMZ 46295) and 0.02 ml overnight culture of Pseudomonas putida. The control samples are not inoculated. Samples are incubated at 30° C. and the TVC and pH are determined at various time points (0 day, 1 day, 4, days, 8 days, 9 days and/or 13 days)."}, "Pseudomonas putida": {"tested_on": "Pseudomonas putida", "assay": "Example 2 preservation efficacy: H60 slurry with 61 wt.-% urea solution, P. putida inoculum, TVC", "format": "cell-based", "details": "30° C.", "method": "as §1, §2\nFor the preparation of inoculum with a single bacterial species (for example Escherichia coli (DSMZ 46295) or Pseudomonas putida), bacteria are spread onto Tryptic soy broth agar (BD, 236950) by dilution streaking followed by incubation at 30° C. for at least 24 h until colonies appear. Overnight cultures are generated by inoculation of 3 ml Tryptic soy broth (Fluka 22092) with a single colony followed incubation with agitation at […] at 30° C. for 24 h.\nas §3"}, "[2]": {"details": "Table 2, urea 2.75%, calcium carbonate 73.1%, water 24.15% w/w"}, "[3]": {"details": "Table 2, urea 7.6%, calcium carbonate 67.1%, water 25.3% w/w"}, "[4]": {"details": "Table 3, urea 0.65%, calcium carbonate 75.7%, water 23.65% w/w"}, "[5]": {"details": "Table 3, urea 2.75%, calcium carbonate 73.1%, water 24.15% w/w"}},
  "data": [
    {"molecule": "NC(N)=O", "note": "[urea]", "values": [
      {"measurement": "TVC cfu/ml Day 4", "setting": "[1]; [2]", "result": "<100", "unit": "cfu/ml"},
      {"measurement": "TVC cfu/ml Day 8", "setting": "[1]; [2]", "result": "<100", "unit": "cfu/ml"},
      {"measurement": "TVC cfu/ml Day 13", "setting": "[1]; [2]", "result": "<100", "unit": "cfu/ml"},
      {"measurement": "TVC cfu/ml Day 1", "setting": "[1]; [3]", "result": "<100", "unit": "cfu/ml"},
      {"measurement": "TVC cfu/ml Day 4", "setting": "[1]; [3]", "result": "<100", "unit": "cfu/ml"},
      {"measurement": "TVC cfu/ml Day 8", "setting": "[1]; [3]", "result": "<100", "unit": "cfu/ml"},
      {"measurement": "TVC cfu/ml Day 13", "setting": "[1]; [3]", "result": "<100", "unit": "cfu/ml"},
      {"measurement": "TVC cfu/ml Day 1", "setting": "[1]; [4]", "result": ">1E5", "unit": "cfu/ml"},
      {"measurement": "TVC cfu/ml Day 4", "setting": "[1]; [4]", "result": ">1E5", "unit": "cfu/ml"},
      {"measurement": "TVC cfu/ml Day 4", "setting": "[1]; [5]", "result": 100, "unit": "cfu/ml"},
      {"measurement": "TVC cfu/ml Day 9", "setting": "[1]; [5]", "result": "<100", "unit": "cfu/ml"},
      {"measurement": "TVC cfu/ml Day 1", "setting": "Pseudomonas putida; [2]", "result": "<100", "unit": "cfu/ml"},
      {"measurement": "TVC cfu/ml Day 4", "setting": "Pseudomonas putida; [2]", "result": "<100", "unit": "cfu/ml"},
      {"measurement": "TVC cfu/ml Day 8", "setting": "Pseudomonas putida; [2]", "result": 100, "unit": "cfu/ml"},
      {"measurement": "TVC cfu/ml Day 13", "setting": "Pseudomonas putida; [2]", "result": "<100", "unit": "cfu/ml"},
      {"measurement": "TVC cfu/ml Day 1", "setting": "Pseudomonas putida; [3]", "result": "<100", "unit": "cfu/ml"},
      {"measurement": "TVC cfu/ml Day 4", "setting": "Pseudomonas putida; [3]", "result": "<100", "unit": "cfu/ml"},
      {"measurement": "TVC cfu/ml Day 8", "setting": "Pseudomonas putida; [3]", "result": "<100", "unit": "cfu/ml"},
      {"measurement": "TVC cfu/ml Day 13", "setting": "Pseudomonas putida; [3]", "result": "<100", "unit": "cfu/ml"},
      {"measurement": "TVC cfu/ml Day 1", "setting": "Pseudomonas putida; [4]", "result": ">1E5", "unit": "cfu/ml"},
      {"measurement": "TVC cfu/ml Day 4", "setting": "Pseudomonas putida; [4]", "result": ">1E5", "unit": "cfu/ml"},
      {"measurement": "TVC cfu/ml Day 1", "setting": "Pseudomonas putida; [5]", "result": "<100", "unit": "cfu/ml"},
      {"measurement": "TVC cfu/ml Day 4", "setting": "Pseudomonas putida; [5]", "result": "<100", "unit": "cfu/ml"},
      {"measurement": "TVC cfu/ml Day 9", "setting": "Pseudomonas putida; [5]", "result": "<100", "unit": "cfu/ml"}
    ]}
  ]
}
